The values below come from patent US20060014811A1, “Medicament for treatment of cancer” (priority 2002, published 2006).

What is called melting point is the temperature, or range, at which the solid turns liquid. As usually defined, the IC50 is the midpoint of a concentration-inhibition curve.

In data set [1] the test system is Jurkat: Human T-cell leukemia. Briefly: Inhibitory test against cancer cell proliferation (1), MTS method. The data set is classed as cell-based. Conditions: 50% inhibitory concentration against proliferation, cultured for 3 days. On the procedure:
(§1) Cancer cells (Jurkat: Human T-cell leukemia, MIA PACA-2: Human pancreatic cancer, RD: Human rhabdomyoma, HepG2: Human liver cancer) were cultured for 3 days in the presence or absence of a test compound using RPMI1640 medium containing 10% bovine fetal serum or Dalbecco's Modified Eagle's Medium containing 10% FBS. The number of living cells was counted by MTS method, and amounts of cell proliferation were compared and inhibitory ratios were measured. In the table below, 50% inhibitory concentrations against the proliferation of each cancer cell are shown.

Data set [2] deals with MIA PACA-2: Human pancreatic cancer. Described as above. Conditions: 50% inhibitory concentration against proliferation, cultured for 3 days. The data set is classed as cell-based. On the procedure:
as §1

Data set [3] has as its system HepG2: Human liver cancer. The description is as above. The data set is classed as cell-based. To be noted: 50% inhibitory concentration against proliferation, cultured for 3 days. On the procedure: as §1
Another data set has as its system RD: Human rhabdomyoma. The data set is described as above. The data set is classed as cell-based. To be noted: 50% inhibitory concentration against proliferation, cultured for 3 days. As for the experimental part: as §1
The test system of data set [4] is MIA PACA-2: Human pancreatic cancer. The data set can be described thus: Inhibitory test against cancer cell proliferation (3). The data set is classed as cell-based. Conditions: Test Example 6, 50% inhibitory concentration against proliferation, similar operations to Test Example 1. As for the experimental part:
as §1
(§2) Similar operations to Test Example 1 were carried out using cancer cells (HepG2: human liver cancer, A^549: human lung cancer, MIA PACA-2: human pancreatic cancer). In the table below, 50% inhibitory concentrations against proliferation of each cancer cell are shown.

Data set [5] concerns HepG2: Human liver cancer. Described as above. It counts as cell-based. To be noted: Test Example 6, 50% inhibitory concentration against proliferation, similar operations to Test Example 1. On the procedure: as §1, §2
The next data set deals with A549: human lung cancer. Described as above. The data set is classed as cell-based. To be noted: Test Example 6, 50% inhibitory concentration against proliferation, similar operations to Test Example 1. On the procedure:
as §1, §2

Another data set has as its system B16 melanoma. Briefly: Metastasis inhibitory test using mouse bearing B16 melanoma. The arrangement: key to Colony Formation (melanoma colonies in the lungs vs control): ±: Same as control; +: Inhibited; ++: Remarkably inhibited; +++: No Formation. It counts as in vivo, B6 mouse. To be noted: 30 mg/kg intraperitoneal once a day for 5 weeks, B16 melanoma cells inoculated by tail vein. As for the experimental part:
B16 melanoma cells (5×10^5 cells/mouse) were inoculated from a tail vein of a B6 mouse of the same kind by intravenous injection, and a test substance was administered once a day for 5 weeks from the day of the inoculation by intraperitoneal injection. Then, the test animal was sacrificed and the lungs were removed. The number of colonies of melanoma in the lungs was compared with that in the control (test substance administered at 0 mg/kg).

On to `O=C(Nc1cc(C(F)(F)F)cc(C(F)(F)F)c1)c1cc(C(=O)N2CCC(Cc3ccccc3)CC2)ccc1O` [compound 40, N-[3,5-Bis(trifluoromethyl)phenyl]-2-hydroxy-5-(4-benzylpiperidine-1-carbonyl)benzamide], for which the melting point fell in the range of 179 to 180 °C.

`CC(=O)Oc1ccccc1C(=O)Nc1cc(Cl)cc(Cl)c1` [compound 120, 2-acetoxy-N-(3,5-dichlorophenyl)benzamide] came in with a melting point of 218 to 219 °C.

As to `CC(C)(C)c1ccc(O)c(C(=O)Nc2cc(C(F)(F)F)cc(C(F)(F)F)c2)c1` [compound 11, N-[3,5-Bis(trifluoromethyl)phenyl]-5-[(1,1-dimethyl)ethyl]-2-hydroxybenzamide], the IC50 in [1] (Homo sapiens, Jurkat, 72 h) was determined as 1.21 µM; in data set [2] (Homo sapiens, MIA PaCa-2, 72 h) it was 0.78 µM; in [3] (Homo sapiens, HepG2, 72 h) it was 1.82 µM; in the data set with RD: Human rhabdomyoma (Homo sapiens, 72 h), 1.96 µM.

For the molecule `CC(C)(C)c1nc(NC(=O)c2cc(Br)ccc2O)sc1N1CCOCC1` [compound 205, 5-Bromo-N-{4-[(1,1-dimethyl)ethyl]-5-morpholinothiazol-2-yl}-2-hydroxybenzamide], the concentration for half-maximal inhibition (IC50) was 1.89 µM in [1] (Homo sapiens, Jurkat, 72 h); 1.45 µM in data set [2] (Homo sapiens, MIA PaCa-2, 72 h); 3.5 µM in [3] (Homo sapiens, HepG2, 72 h); 1.94 µM in the data set with RD: Human rhabdomyoma (Homo sapiens, 72 h); above 10 µM in [4] (Homo sapiens, MIA PaCa-2); 4.23 µM in data set [5] (Homo sapiens, HepG2). The molecule also registered an IC50 in the data set on A549: human lung cancer (Homo sapiens, A549) above 10 µM.

As to `CC(C)(C)C(=O)c1sc(NC(=O)c2cc(Cl)ccc2O)nc1C(C)(C)C` [compound 199, 5-Chloro-N-{4-[(1,1-dimethyl)ethyl]-5-[(2,2-dimethyl)propionyl]thiazol-2-yl}-2-hydroxybenzamide], the IC50 stood at 0.44 µM in data set [1] (Homo sapiens, Jurkat, 72 h); 0.46 µM in data set [2] (Homo sapiens, MIA PaCa-2, 72 h); 1.26 µM in data set [3] (Homo sapiens, HepG2, 72 h); 0.57 µM in the data set with RD: Human rhabdomyoma (Homo sapiens, 72 h); 0.56 µM in data set [4] (Homo sapiens, MIA PaCa-2); 0.59 µM in [5] (Homo sapiens, HepG2). This molecule also returned a half-maximal inhibitory concentration (IC50) in the data set on A549: human lung cancer (Homo sapiens, A549) of 5.15 µM.

Take `O=C(Nc1nc(-c2ccccc2)c(C(=O)c2ccccc2)s1)c1cc(Br)ccc1O` [compound 215, 5-Bromo-N-(5-benzoyl-4-phenylthiazol-2-yl)-2-hydroxybenzamide]: the IC50 in data set [4] (Homo sapiens, MIA PaCa-2) stood at 2.76 µM; in data set [5] (Homo sapiens, HepG2) it was 4.98 µM; in the data set with A549: human lung cancer (Homo sapiens, A549), 8.31 µM.

Turning to `CC(C)(C)c1nc(NC(=O)c2cc(Br)ccc2O)sc1N1CCN(c2ccccc2)CC1` [compound 207, 5-Bromo-N-{4-[(1,1-dimethyl)ethyl]-5-(4-phenylpiperazin-1-yl)thiazol-2-yl}-2-hydroxybenzamide], the IC50 in data set [1] (Homo sapiens, Jurkat, 72 h) turned out to be 1.64 µM; in data set [2] (Homo sapiens, MIA PaCa-2, 72 h) it was 1.26 µM; in data set [3] (Homo sapiens, HepG2, 72 h), 1.76 µM; in the data set with RD: Human rhabdomyoma (Homo sapiens, 72 h) it was 1.52 µM.

As for `O=C(Nc1cc(C(F)(F)F)cc(C(F)(F)F)c1)c1cc(Cl)ccc1O` [compound 4, N-[3,5-bis(trifluoromethylphenyl)]-5-chloro-2-hydroxybenzamide], the IC50 in [1] was 0.74 µM; in [2], 0.65 µM; in [3], 0.69 µM; with RD: Human rhabdomyoma, 1.03 µM; in data set [4], 0.82 µM; in [5], 0.72 µM. Besides, in the data set with A549: human lung cancer, inhibition was half-maximal at 4.03 µM (IC50). Moreover, the “Colony Formation (melanoma colonies in the lungs vs control)” value with B16 melanoma was “++”. Moreover, the “Survival Ratio after 5 weeks(%)” value in the data set on B16 melanoma (control 50%) stood at 100%.

Take `O=C(Nc1cc(C(F)(F)F)cc(C(F)(F)F)c1)c1cc(-n2cccc2)ccc1O` [compound 27]: the IC50 in data set [1] came to 1.2 µM; in data set [2], 1.19 µM; in data set [3], 1.96 µM; in the data set with RD: Human rhabdomyoma, 1.26 µM.
